From patent US20080261891A1, “COMPOSITIONS AND METHODS FOR USING SYRINGOPEPTIN 25A AND RHAMNOLIPIDS” (Utah State University, priority 2007, published 2008)
Values after ≈ are worked out from the molar mass of the structure shown. Where a SMILES comes first, the peptide text is derived from it. Bridges are numbered along the chain shown (N, C = ends). [ ]: non-standard residue; d: D form. The star is where a group is joined. ξ: configuration not given here. Decanoyl(3ξ-OH) = CCCCCCCC(O)CC(=O)*; Dab = NCC[CH](N)C(=O)O; Dhb = C/C=C(\N)C(=O)O

What was measured:
Bacillus megaterium [1] = assay: Inhibition rate (IR), propidium iodide uptake; format: cell-based
Description: (§1) The antimicrobial action for each compound was initially determined by the rate of uptake of propidium iodide (Fluoropure grade, Molecular Probes, Inc., Eugene, Oreg.) as previously described (Haughland, R. P., 2002, Handbook of fluorescent probes and research chemicals, 9th ed. Molecular Probes, Inc., Eugene, Oreg.). Briefly, all cultures were grown overnight in their respective optimal growth medium and temperature from freezer vials (Table 1). Each culture was sub-cultured twice, harvested in mid-log phase, washed with saline, and adjusted to an appropriate concentration by measuring the optical density at 600 nm. PI, with an excitation wavelength of 535 and an emission wavelength of 617, was added to the culture suspension at a final concentration of 10 μM. Each organism was treated with 50 μg/mL SP 25A and 60 μg/mL of the RL mixture in a final volume of 2.2 mL. The increase in fluorescence was measured with a Shimadzu RF 1501 spectrophotofluorometer at 15 s intervals for a maximum period of 120 min. Saline was added in place of SP 25A or RLs as a negative control. All inhibition experiments were done in replicate.
(§2) The rate of antimicrobial action was expressed as the inhibition rate (“IR”). Curve fitting was done using OriginPro version 7.0 (Natick, Mass.). IR=((Log RFU/(Time))−C)/Time (when d Log RFU/dT>0). Where RFU=relative fluorescent units; and C=Y intercept.

Lactobacillus plantarum [2] = assay: Inhibition rate (IR), propidium iodide uptake; format: cell-based
Description: as §1, §2

Bacillus subtilis [3] = assay: Inhibition rate (IR), propidium iodide uptake; format: cell-based
Description: as §1, §2

Streptococcus suis [4] = assay: Inhibition rate (IR), propidium iodide uptake; format: cell-based
Description: as §1, §2

Bacillus cereus [5] = assay: Inhibition rate (IR), propidium iodide uptake; format: cell-based
Description: as §1, §2

Salmonella typhimurium = assay: Inhibition rate (IR), propidium iodide uptake; format: cell-based
Description: as §1, §2

Brevibacterium linens = assay: Inhibition rate (IR), propidium iodide uptake; format: cell-based
Description: as §1, §2

[6] = tested on: Streptococcus agalacticae; assay: Inhibition rate (IR), propidium iodide uptake; format: cell-based
Description: as §1, §2

[7] = tested on: Staphylococcus aureus subsp. aureus; assay: Inhibition rate (IR), propidium iodide uptake; format: cell-based
Description: as §1, §2

[8] = tested on: Lactobacillus acidophilus; assay: Inhibition rate (IR), propidium iodide uptake; format: cell-based
Description: as §1, §2

Citrobacter fruendii [9] = assay: Inhibition rate (IR), propidium iodide uptake; format: cell-based
Description: as §1, §2

Micrococcus luteus = assay: Inhibition rate (IR), propidium iodide uptake; format: cell-based
Description: as §1, §2

Enterococcus faecalis = assay: Inhibition rate (IR), propidium iodide uptake; format: cell-based
Description: as §1, §2

Streptococcus mutans [10] = assay: Inhibition rate (IR), propidium iodide uptake; format: cell-based
Description: as §1, §2

Erwinia herbicola = assay: Inhibition rate (IR), propidium iodide uptake; format: cell-based
Description: as §1, §2

[11] = tested on: Lactococcus lactis subsp. Lactis; assay: Inhibition rate (IR), propidium iodide uptake; format: cell-based
Description: as §1, §2

[12] = tested on: Eschereschia coli H7:0157; assay: Inhibition rate (IR), propidium iodide uptake; format: cell-based
Description: as §1, §2

Eschereschia coli K12 [13] = assay: Inhibition rate (IR), propidium iodide uptake; format: cell-based
Description: as §1, §2

Flavobacterium devorans = assay: Inhibition rate (IR), propidium iodide uptake; format: cell-based
Description: as §1, §2

Bacillus megaterium [14] = assay: MIC, microbroth dilution method; format: cell-based; conditions: 48 h
Description: (§3) The MIC of the compounds for the organisms was determined by the microbroth dilution method, described hereafter. The microorganisms were prepared as described above and resuspended in their optimal growth media (Table 1) to ˜10^5 CFU/mL containing SP 25A at 2, 3, 4, 5, 6, 7, 8, 16, 32 and 50 μg/mL in a total volume of 550 μL. RL concentrations of 2, 3, 4, 5, 6, 7, 8, 16, 32 and 60 μg/mL in a total volume of 550 μL were tested in a 48-well plate (Corning, N.Y.). The plates were incubated at optimal growth conditions for the respective organism and monitored for an increase in OD600 after 48 h by a Perkin-Elmer (HTS 7000) plate reader (Downers Grove, Ill.). […] Negative controls (no inhibition of growth) were included using saline in the assay for each compound. The lowest concentration at which there was no increase in OD over 48 h was reported as the MIC. Each MIC was determined in replicate with three separate tests per replication. The results of the three tests were averaged for each replicate.

Lactobacillus plantarum [15] = assay: MIC, microbroth dilution method; format: cell-based; conditions: 48 h
Description: as §3

Salmonella enteridis = assay: MIC, microbroth dilution method; format: cell-based; conditions: 48 h
Description: as §3

Bacillus subtilis [16] = assay: MIC, microbroth dilution method; format: cell-based; conditions: 48 h
Description: as §3

Listeria innocua = assay: MIC, microbroth dilution method; format: cell-based; conditions: 48 h
Description: as §3

Streptococcus suis [17] = assay: MIC, microbroth dilution method; format: cell-based; conditions: 48 h
Description: as §3

Bacillus cereus [18] = assay: MIC, microbroth dilution method; format: cell-based; conditions: 48 h
Description: as §3

[19] = tested on: Streptococcus agalacticae; assay: MIC, microbroth dilution method; format: cell-based; conditions: 48 h
Description: as §3

[20] = tested on: Lactobacillus acidophilus; assay: MIC, microbroth dilution method; format: cell-based; conditions: 48 h
Description: as §3

Enterobacter aerogenes = assay: MIC, microbroth dilution method; format: cell-based; conditions: 48 h
Description: as §3

Citrobacter fruendii [21] = assay: MIC, microbroth dilution method; format: cell-based; conditions: 48 h
Description: as §3

Clostridium sporogenes = assay: MIC, microbroth dilution method; format: cell-based; conditions: 48 h
Description: as §3

Listeria monocytogenes = assay: MIC, microbroth dilution method; format: cell-based; conditions: 48 h
Description: as §3

Streptococcus mutans [22] = assay: MIC, microbroth dilution method; format: cell-based; conditions: 48 h
Description: as §3

[23] = tested on: Lactococcus lactis subsp. Lactis; assay: MIC, microbroth dilution method; format: cell-based; conditions: 48 h
Description: as §3

Eschereschia coli K12 [24] = assay: MIC, microbroth dilution method; format: cell-based; conditions: 48 h
Description: as §3

RBC = conditions: reported by Dalla Serra et al. 1999; cited from earlier work

## C/C=C(\NC(=O)C(C)NC(=O)C(C)NC(=O)C(CC(C)C)NC(=O)C(NC(=O)C(C)NC(=O)C(C)NC(=O)C(NC(=O)C1CCCN1C(=O)/C(=C/C)NC(=O)CC(O)CCCCCCC)C(C)C)C(C)C)C(=O)NC(C(=O)N/C(=C\C)C(=O)NC(C)C(=O)NC(C(=O)NC(C)C(=O)NC(C)C(=O)N/C(=C\C)C(=O)NC1C(=O)NC(CO)C(=O)NC(C)C(=O)NC(C(C)C)C(=O)NC(C)C(=O)NC(CCN)C(=O)NC(CCN)C(=O)NC(Cc2ccc(O)cc2)C(=O)OC1C)C(C)C)C(C)C (stereo not drawn) [SP 25A, syringopeptin 25A] ({Decanoyl(3ξ-OH)}-[Dhb]PVAAVLAA[Dhb]V[Dhb]AVAA[Dhb]TSAVA[Dab][Dab]Y; ester 18-C; configuration not given here)
Bacillus megaterium [1]
  IR SP 25A (50 μg/mL): 0.005
Lactobacillus plantarum [2]
  IR SP 25A (50 μg/mL): 0.003
Bacillus subtilis [3]
  IR SP 25A (50 μg/mL): 0.006
Streptococcus suis [4]
  IR SP 25A (50 μg/mL): 0.006
Bacillus cereus [5]
  IR SP 25A (50 μg/mL): 0.004
Salmonella typhimurium
  IR SP 25A (50 μg/mL): 0.000
Brevibacterium linens
  IR SP 25A (50 μg/mL): 0.009
[6]
  IR SP 25A (50 μg/mL): 0.004
[7]
  IR SP 25A (50 μg/mL): 0.003
[8]
  IR SP 25A (50 μg/mL): 0.003
Citrobacter fruendii [9]
  IR SP 25A (50 μg/mL): 0.000
Micrococcus luteus
  IR SP 25A (50 μg/mL): 0.006
Enterococcus faecalis
  IR SP 25A (50 μg/mL): 0.001
Streptococcus mutans [10]
  IR SP 25A (50 μg/mL): 0.003
Erwinia herbicola
  IR SP 25A (50 μg/mL): 0.000
[11]
  IR SP 25A (50 μg/mL): 0.008
[12]
  IR SP 25A (50 μg/mL): 0.000
Eschereschia coli K12 [13]
  IR SP 25A (50 μg/mL): 0.000
Flavobacterium devorans
  IR SP 25A (50 μg/mL): 0.002
Bacillus megaterium [14]
  MIC: 3 µg/mL (≈ 1.25 µM)
Lactobacillus plantarum [15]
  MIC: 16 µg/mL (≈ 6.67 µM)
Salmonella enteridis
  MIC: >50 µg/mL
Bacillus subtilis [16]
  MIC: 4 µg/mL (≈ 1.67 µM)
Listeria innocua
  MIC: 3 µg/mL (≈ 1.25 µM)
Streptococcus suis [17]
  MIC: 4 µg/mL (≈ 1.67 µM)
Bacillus cereus [18]
  MIC: 4 µg/mL (≈ 1.67 µM)
[19]
  MIC: 8 µg/mL (≈ 3.33 µM)
[20]
  MIC: 8 µg/mL (≈ 3.33 µM)
Enterobacter aerogenes
  MIC: >50 µg/mL
Citrobacter fruendii [21]
  MIC: >50 µg/mL
Clostridium sporogenes
  MIC: 4 µg/mL (≈ 1.67 µM)
Listeria monocytogenes
  MIC: 3 µg/mL (≈ 1.25 µM)
Streptococcus mutans [22]
  MIC: 4 µg/mL (≈ 1.67 µM)
[23]
  MIC: 4 µg/mL (≈ 1.67 µM)
Eschereschia coli K12 [24]
  MIC: >50 µg/mL
RBC
  concentration to achieve 50% RBC hemolysis: 8.88 µg/mL
